One test has as its target T1, Adrenergic β2 (Homo sapiens, UniProt P07550).
T1 construct: Adherent H292 cells were removed from tissue culture flasks; endogenous in cells; host or cells: H292 cells
Briefly: Adrenergic β2 mediated cAMP production in H292 cells (AlphaScreen cAMP detection). The test is classed as cell-based. Also on record: key to β2 Int Act: fraction of formoterol maximum activity (formoterol = 1). As to conditions: for β2 Int Act: Intrinsic Activity as a fraction relative to the maximum activity determined for formoterol; for EC50: cAMP production, 60 minutes at room temperature, 300 μM rolipram, read-out: β2 pEC50 (converted). The method, then:
Adrenergic β2 Mediated cAMP Production
H292 cells were grown in 225 cm2 flasks incubator at 37° C., 5% CO2 in RPMI medium containing, 10% (v/v) FBS (foetal bovine serum) and 2 mM L-glutamine.
Adherent H292 cells were removed from tissue culture flasks by treatment with Accutase™ cell detachment solution for 15 minutes. Flasks were incubated for 15 minutes in a humidified incubator at 37° C., 5% CO2. Detached cells were re-suspended in RPMI media (containing 10% (v/v) FBS and 2 mM L-glutamine) at 1×10^6 cells per mL. 10000 cells in 100 μL were added to each well of a tissue-culture-treated 96-well plate and the cells incubated overnight in a humidified incubator at 37° C., 5% CO2. The culture media was removed and cells were washed twice with 100 μL assay buffer and replaced with 50 μL assay buffer (HBSS solution containing 10 mM HEPES pH7.4 and 5 mM glucose). Cells were rested at room temperature for 20 minutes after which time 25 μL of rolipram (1.2 mM made up in assay buffer containing 2.4% (v/v) dimethylsulphoxide) was added. Cells were incubated with rolipram for 10 minutes after which time test compounds were added and the cells were incubated for 60 minutes at room temperature. The final rolipram concentration in the assay was 300 μM and final vehicle concentration was 1.6% (v/v) dimethylsulphoxide. The reaction was stopped by removing supernatants, washing once with 100 μL assay buffer and replacing with 50 μL lysis buffer. The cell monolayer was frozen at −80° C. for 30 minutes (or overnight).
AlphaScreen™ cAMP Detection
The concentration of cAMP (cyclic adenosine monophosphate) in the cell lysate was determined using AlphaScreen™ methodology. The frozen cell plate was thawed for 20 minutes on a plate shaker then 10 μL of the cell lysate was transferred to a 96-well white plate. 40 μL of mixed AlphaScreen™ detection beads pre-incubated with biotinylated cAMP, was added to each well and the plate incubated at room temperature for 10 hours in the dark. The AlphaScreen™ signal was measured using an EnVision spectrophotometer (Perkin-Elmer Inc.) with the recommended manufacturer's settings. cAMP concentrations were determined by reference to a calibration curve determined in the same experiment using standard cAMP concentrations. Concentration response curves for agonists were constructed and data was fitted to a four parameter logistic equation to determine both the pEC50 and Intrinsic Activity. Intrinsic Activity was expressed as a fraction relative to the maximum activity determined for formoterol in each experiment.
Background: Changes in cAMP serve as a functional read-out for many G protein-coupled receptors.

Test [1] has as its target T2, recombinant human α1D receptor (Homo sapiens, UniProt P25100).
T2 construct: expressed in transfected cells; host or cells: human embryonic kidney 293 cells (HEK93 [sic]), membranes
T2 sequence (P25100 1-572): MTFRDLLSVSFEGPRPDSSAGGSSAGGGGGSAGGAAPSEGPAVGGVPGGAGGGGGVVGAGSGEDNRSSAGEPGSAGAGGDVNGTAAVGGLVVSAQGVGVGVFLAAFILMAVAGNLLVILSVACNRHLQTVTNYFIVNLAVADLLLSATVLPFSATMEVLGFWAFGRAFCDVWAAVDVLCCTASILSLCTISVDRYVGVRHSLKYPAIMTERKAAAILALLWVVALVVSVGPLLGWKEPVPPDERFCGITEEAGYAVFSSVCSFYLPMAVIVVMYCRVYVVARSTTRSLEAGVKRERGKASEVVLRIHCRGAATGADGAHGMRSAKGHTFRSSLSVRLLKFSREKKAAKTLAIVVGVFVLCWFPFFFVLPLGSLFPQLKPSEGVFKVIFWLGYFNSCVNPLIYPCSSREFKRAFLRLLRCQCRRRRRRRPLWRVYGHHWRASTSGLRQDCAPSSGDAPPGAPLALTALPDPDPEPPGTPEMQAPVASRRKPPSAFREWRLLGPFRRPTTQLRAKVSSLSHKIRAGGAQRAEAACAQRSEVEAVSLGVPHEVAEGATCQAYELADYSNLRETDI
Briefly: Adrenergic α1D selectivity assay, [3H]-prazosin binding to membranes. To be noted: inhibition of [3H]-prazosin binding, HEK cell membranes, read-out: α1 bind pIC50 (converted). On the procedure: Membranes were prepared from human embryonic kidney 293 ([…]) cells expressing recombinant human α1D receptor. These were diluted in Assay Buffer (50 mM HEPES, 1 mM EDTA, pH 7.4) to provide a final concentration of membranes that gave a clear window between maximum and minimum specific binding.
Assays were performed in U-bottomed 96-well polypropylene plates. 10 μL [^3H]-prazosin (0.3 nM final concentration) and […] of test compound (10× final concentration) were added to each test well. For each assay plate 8 replicates were obtained for [^3H]-prazosin binding in the presence of 10 μL vehicle (10% (v/v) DMSO in Assay Buffer; defining maximum binding) or 10 μL BMY7378 (10 μM final concentration; defining non-specific binding (NSB)). Membranes were then added to achieve a final volume of 100 μL. The plates were incubated for 2 hours at room temperature and then filtered onto PEI coated GF/B filter plates, pre-soaked for 1 hour in Assay Buffer, using a 96-well plate Tomtec cell harvester. Five washes with 250 μL wash buffer (50 mM HEPES, 1 mM EDTA, pH 7.4) were performed at 4° C. to remove unbound radioactivity. The plates were dried then sealed from underneath using Packard plate sealers and MicroScint-O (50 μL) was added to each well. The plates were sealed (TopSeal A) and filter-bound radioactivity was measured with a scintillation counter (TopCount, Packard BioScience) using a 3-minute counting protocol.
Total specific binding (B0) was determined by subtracting the mean NSB from the mean maximum binding. NSB values were also subtracted from values from all other wells. […] Data was fitted to a four parameter logistic equation to determine the compound potency, which was expressed as pIC50 (negative log molar concentration inducing 50% inhibition of [^3H]-prazosin binding).

Test [2] has as its target T3, recombinant human Dopamine Subtype D2s receptors (Homo sapiens, UniProt P14416).
T3 construct: purchased Perkin Elmer
Briefly: Dopamine D2 selectivity assay, [3H]-spiperone binding to membranes. To be noted: inhibition of [3H]-spiperone binding, read-out: D2 bind pIC50 (converted). The method, then:
Membranes containing recombinant human Dopamine Subtype D2s receptors were obtained from Perkin Elmer. These were diluted in Assay Buffer (50 mM HEPES, 1 mM EDTA, 120 mM NaCl, 0.1% gelatin, pH 7.4) to provide a final concentration of membranes that gave a clear window between maximum and minimum specific binding.
Assays were performed in U-bottomed 96-well polypropylene plates. 30 μL [^3H]-spiperone (0.16 nM final concentration) and 30 μL of test compound (10× final concentration) were added to each test well. For each assay plate 8 replicates were obtained for [^3H]-spiperone binding in the presence of 30 μL vehicle (10% (v/v) DMSO in Assay Buffer; defining maximum binding) or 30 μL Haloperidol (10 μM final concentration; defining non-specific binding (NSB)). Membranes were then added to achieve a final volume of 300 μL. The plates were incubated for 2 hours at room temperature and then filtered onto PEI coated GF/B filter plates, pre-soaked for 1 hour in Assay Buffer, using a 96-well plate Tomtec cell harvester. Five washes with 250 μL wash buffer (50 mM HEPES, 1 mM EDTA, 120 mM NaCl, pH 7.4) were performed at 4° C. to remove unbound radioactivity. The plates were dried then sealed from underneath using Packard plate sealers and MicroScint-0 (50 μL) was added to each well. The plates were sealed (TopSeal A) and filter-bound radioactivity was measured with a scintillation counter (TopCount, Packard BioScience) using a 3-minute counting protocol.
Total specific binding (B0) was determined by subtracting the mean NSB from the mean maximum binding. NSB values were also subtracted from values from all other wells. […] Data was fitted to a four parameter logistic equation to determine the compound potency, which was expressed as pIC50 (negative log molar concentration inducing 50% inhibition of [^3H]-spiperone binding).

Each structure is given as a SMILES string. Counter-ions that a name gives are not always drawn.

T1 sequence (P07550 whole entry): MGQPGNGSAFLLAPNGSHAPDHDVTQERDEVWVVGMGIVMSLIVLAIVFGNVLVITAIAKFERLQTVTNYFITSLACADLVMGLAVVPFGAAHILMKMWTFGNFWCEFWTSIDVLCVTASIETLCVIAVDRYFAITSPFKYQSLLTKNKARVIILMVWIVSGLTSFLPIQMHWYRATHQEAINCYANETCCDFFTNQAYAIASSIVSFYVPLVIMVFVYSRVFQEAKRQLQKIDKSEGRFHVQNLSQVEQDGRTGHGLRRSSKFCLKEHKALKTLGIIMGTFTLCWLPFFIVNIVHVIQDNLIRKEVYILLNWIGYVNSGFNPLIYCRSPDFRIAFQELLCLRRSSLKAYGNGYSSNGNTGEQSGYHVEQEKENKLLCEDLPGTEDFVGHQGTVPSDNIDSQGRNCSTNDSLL
T3 sequence (P14416 1-414 isoform P14416-2): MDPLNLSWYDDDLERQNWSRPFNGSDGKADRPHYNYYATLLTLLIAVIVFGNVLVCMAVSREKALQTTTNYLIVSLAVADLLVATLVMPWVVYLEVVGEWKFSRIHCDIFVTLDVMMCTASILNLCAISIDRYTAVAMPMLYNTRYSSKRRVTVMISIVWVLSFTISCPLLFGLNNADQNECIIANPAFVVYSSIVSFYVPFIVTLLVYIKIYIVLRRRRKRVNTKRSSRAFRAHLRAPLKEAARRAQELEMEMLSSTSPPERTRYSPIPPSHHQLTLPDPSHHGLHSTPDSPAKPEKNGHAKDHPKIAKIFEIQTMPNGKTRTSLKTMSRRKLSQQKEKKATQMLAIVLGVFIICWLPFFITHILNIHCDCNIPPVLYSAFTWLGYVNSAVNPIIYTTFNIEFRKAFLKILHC

In the case of `CCCCN(CCNCCc1ccc(O)c2[nH]c(=O)ccc12)C(=O)CCOCCc1ccccc1` [Example 1, N-Butyl-N-(2-(2-(8-hydroxy-2-oxo-1,2-dihydroquinolin-5-yl)ethylamino)ethyl)-3-phenethoxypropanamide hydrochloride], at Adrenergic β2, the “β2 Int Act” value worked out at 0.9 and the EC50 is 398 nM.
For `O=C(CCNCCc1cccc(F)c1)N(CCNCCc1ccc(O)c2[nH]c(=O)ccc12)C1CCCCCC1` [Example 5, N-Cycloheptyl-3-(3-fluorophenethylamino)-N-(2-(2-(8-hydroxy-2-oxo-1,2-dihydroquinolin-5-yl)ethylamino)ethyl)propanamide bis(trifluoroacetate)], the “β2 Int Act” value on Adrenergic β2 is recorded as 0.82. Besides, the EC50 at Adrenergic β2 is 7.94 nM. In addition, the IC50 in test [1] was 158 nM; in test [2], 501 nM.
The like results for `O=C(CCNCCc1ccc(F)cc1)N(CCNCCc1ccc(O)c2[nH]c(=O)ccc12)C1CCCCCC1` [Example 6, N-Cycloheptyl-3-(4-fluorophenethylamino)-N-(2-(2-(8-hydroxy-2-oxo-1,2-dihydroquinolin-5-yl)ethylamino)ethyl)propanamide bis(trifluoroacetate)] were, in that order, 0.65, 31.6 nM, 50.1 nM and 251 nM.
Take `O=C(CCNCCc1ccccc1)N(CCNCCc1ccc(O)c2[nH]c(=O)ccc12)C1CCCCCC1` [Example 7, N-Cycloheptyl-N-(2-(2-(8-hydroxy-2-oxo-1,2-dihydroquinolin-5-yl)ethylamino)ethyl)-3-(phenethylamino)propanamide bis(trifluoroacetate)]: on Adrenergic β2, the “β2 Int Act” value worked out at 0.76 and the EC50 is 10 nM. Besides, the IC50 in test [1] was 126 nM. In addition, in test [2], the IC50 is 316 nM.
Take `Cc1cccc(CCNCCC(=O)N(CCNCCc2ccc(O)c3[nH]c(=O)ccc23)C2CCCCCC2)c1` [Example 8, N-Cycloheptyl-N-(2-(2-(8-hydroxy-2-oxo-1,2-dihydroquinolin-5-yl)ethylamino)ethyl)-3-(3-methylphenethylamino)propanamide bis(trifluoroacetate)]: the “β2 Int Act” value on Adrenergic β2 is reported as 0.79. Besides, on Adrenergic β2, the EC50 is 6.31 nM. Further, the IC50 was 100 nM in test [1] and 398 nM in test [2].
Turning to `C[C@H](CNCCC(=O)N(CCNCCc1ccc(O)c2[nH]c(=O)ccc12)C1CCCCCC1)c1ccccc1` [Example 9, (S)—N-Cycloheptyl-N-(2-(2-(8-hydroxy-2-oxo-1,2-dihydroquinolin-5-yl)ethylamino)ethyl)-3-(2-phenylpropylamino)propanamide bis(trifluoroacetate)], on Adrenergic β2, the “β2 Int Act” value was determined as 0.91 and the EC50 was 39.8 nM.
Take `O=C(CCNCCc1cccc(-c2ccccc2)c1)N(CCNCCc1ccc(O)c2[nH]c(=O)ccc12)C1CCCCCC1` [Example 12, 3-(2-(Biphenyl-3-yl)ethylamino)-N-cycloheptyl-N-(2-(2-(8-hydroxy-2-oxo-1,2-dihydroquinolin-5-yl)ethylamino)ethyl)propanamide bis(trifluoroacetate)]: at Adrenergic β2, the “β2 Int Act” value was found to be 0.67 and the EC50 was 50.1 nM. Also, the IC50 in test [1] is 316 nM. In test [2], the IC50 is 126 nM.
Consider `O=C(CCNCCc1cccc(F)c1)N(CCNCCc1ccc(O)c2[nH]c(=O)ccc12)C1CCCCC1` [Example 19, N-Cyclohexyl-3-(3-fluorophenethylamino)-N-(2-(2-(8-hydroxy-2-oxo-1,2-dihydroquinolin-5-yl)ethylamino)ethyl)propanamide], for which, at Adrenergic β2, the “β2 Int Act” value stood at 0.87 and the EC50 was 10 nM. In test [1], the IC50 was 200 nM. In test [2], the IC50 is 1260 nM.
For `O=C1Cc2c(CCNCCN(C(=O)CCNCCc3cccc(F)c3)C3CCCCC3)ccc(O)c2N1` [Example 20, N-Cyclohexyl-3-(3-fluorophenethylamino)-N-(2-(2-(7-hydroxy-2-oxoindolin-4-yl)ethylamino)ethyl)propanamide dihydrobromide] the same measures were 0.78, 7.94 nM, 158 nM and 398 nM.
Regarding `O=C(CCOCCc1cc(F)cc(F)c1)N(CCNCCc1ccc(O)c2[nH]c(=O)ccc12)C1CCCCC1` [Example 78, N-Cyclohexyl-3-(3,5-difluorophenethoxy)-N-(2-(2-(8-hydroxy-2-oxo-1,2-dihydroquinolin-5-yl)ethylamino)ethyl)propanamide trifluoroacetate], at Adrenergic β2, the “β2 Int Act” value came out at 1.01 and the EC50 is 20 nM. Also, the IC50 in test [1] is 794 nM.

The values are drawn from patent US20100056508A1, “AMINE DERIVATIVES AND THEIR USE IN BETA-2-ADRENORECEPTOR MEDIATED DISEASES” (ASTRAZENECA AB, priority 2006, published 2010).
